According to US20240390285A1, “HIGH-DOSE COMPRESSIBLE DOSAGE FORMS MANUFACTURED BY SIMULTANEOUS MELT-COATING AND MELT-GRANULATION OF ACTIVE PHARMACEUTICAL INGREDIENTS” (Rutgers, The State University of New Jersey, priority 2021, published 2024):
Where “and” joins values, the source holds several entries; their conditions need not be identical. Equal values may be shown once. Read-outs that look alike come from different tables or passages of the source.

Columns and labels:
[1] = Percent loss-on-drying (LOD); type: physicochemical
[2] = Granule tabletability, […] compactor simulator; type: physicochemical; details: 600 mg darunavir, 12 mm
Protocol: This provided an assessment of granule tabletability using a […] compactor simulator, producing 12 mm flat cylindrical tablets having a thickness of approximately 4.6 mm.
The processing parameters for the granules in table 8 were: 0.4 kg/h throughput, 300 rpm screw speed, 60° C. processing temperature.
The granules were blended with 1% of MgSt and formed into tablets using […] tooling.

[3] = cited from earlier work
[4] = cited from earlier work; remark: listed apart in the source
[5] = tablet 96% darunavir + 1% MgSt + 3% CMC-Na, avg. pre-compression force 1.54-1.84 kN
[6] = tablet 99% darunavir + 1% MgSt, avg. pre-compression force 1.67-1.80 kN
[7] = tablet 99% darunavir + 1% MgSt, avg. pre-compression force 9.59-10.16 kN

Structure (SMILES) | percent loss-on-drying, Avg. ([1]; average of 3 samples) | percent loss-on-drying (weight loss due to moisture evaporation) ([1]; individual Samples 1-3, listed as Pure Darunavir) | Avg. Crushing Force/Hardness [2, 5] | Tablet density [2, 5] | Tensile Strength [2, 5] | Avg. Crushing Force/Hardness [2, 6] | Tablet density [2, 6] | Tensile Strength [2, 6] | Avg. Crushing Force/Hardness [2, 7] | Tablet density [2, 7] | Tensile Strength [2, 7] | dissociation constant, pKa [3] | solubility ([4]; pH of 2.0-5.5) | solubility ([4]; pH of 5.5-6.1)
CC(C)CN(C[C@@H](O)[C@H](Cc1ccccc1)NC(=O)O[C@H]1CO[C@H]2OCC[C@H]21)S(=O)(=O)c1ccc(N)cc1 [darunavir, Darunavir] | 4.42% | 4.36% and 4.28% and 4.63% | 65.3 N | 1.16 g/mL | 0.76 MPa | 42.9 N | 1.14 g/mL | 0.49 MPa | 36.8 N | 1.15 g/mL | 0.42 MPa |  |  | 
NC(=O)c1nc(F)c[nH]c1=O [favipiravir, 6-fluoro-3-oxo-3,4-dihydropyrazine-2-carboxamide] |  |  |  |  |  |  |  |  |  |  |  | 5.1 | only slightly soluble | sparingly soluble
